Experimental findings from patent US20230226227A1, “PROSTATE SPECIFIC MEMBRANE ANTIGEN (PSMA) LIGANDS AND USES THEREOF” (ADVANCED ACCELERATOR APPLICATIONS (ITALY) SRL, priority 2019, published 2023) are described below.

The nature of series [1]: In vitro stability in plasma (human). It counts as in vitro ADME. The settings on record: 37° C., after 2 hours. The protocol:
Stability of PSMA-R2 ligand was assessed in vitro after incubation with plasma from four different species (mouse, rat, mini-pig and human). PSMA-R2 was incubated at 37° C. in the different matrices, at a final concentration of 10 µg/mL, for 30, 60 and 120 minutes. The samples were analyzed by LC-MS/MS method.

The nature of series [2]: Plasma protein binding by ultrafiltration, mouse plasma. It counts as in vitro ADME. The method, then: (§1) Plasma protein binding of PSMA-R2 and ^175Lu-PSMA-R2 has been determined by ultrafiltration method, after incubation of the compounds in human, mouse, rat and minipig plasma at two different concentrations: 1 and 5 µg/mL.
Series [3] can be described thus: Plasma protein binding by ultrafiltration, minipig plasma. The settings on record: read-out: fu (%) fraction unbound. It counts as in vitro ADME. The method, then:
as §1

The nature of series [4]: Plasma protein binding by ultrafiltration, human plasma. The format is in vitro ADME. The settings on record: human plasma. The protocol: as §1
A short description of series [5]: Plasma protein binding by ultrafiltration, rat plasma. It counts as in vitro ADME. Particulars: read-out: fu (%) fraction unbound. The protocol:
as §1

The nature of series [6]: In vivo distribution in healthy CD-1 mice. Set-up: species or system CD-1 healthy mice. The protocol: In vivo distribution studies were performed in CD-1 healthy mice using Ga-labelled PSMA-R2, which was administered intravenously at a dose of 120-150 µCi (4.44 - 5.55 MBq). At specific time points after intravenous injection, animals (3 or 4/group) were sacrificed, organs collected, weighted and evaluated in a gamma counter.

Series [7] relates to PC-3 PSMA positive and PSMA negative tumor xenografts. Briefly: In vivo distribution in tumor models (PSMA positive PIP and negative Flu xenografts). Further details: species or system athymic nude male mice. The settings on record: for Salivary glands uptake: 0.5 h post injection; for Kidney uptake / Tumor uptake / Tumor-to-kidney ratio: 1 h post injection. The method, then:
Athymic nude male mice bearing the PC-3 PSMA positive and PSMA negative tumor xenografts were injected with approximately 4.5 MBq of ^68Ga-PSMA-R2, and subsequently assessed for biodistribution and imaging studies. At 4 time points (30 min, 1 h, 2 h and 4 h) post injection (p.i.), tumor and organ uptake was determined using a gamma-counter. To assess receptor-specificity additional groups of animals were coinjected with an excess of unlabeled PSMA-R2 (40 nmol).
The same study was performed with ^68Ga-PSMA-cpd 2, a comparative compound of the following formula: […]

Series [8] has as its system PC3-PIP (PSMA positive) tumor. The experiment in a line: In vivo efficacy in PC3-PIP PSMA positive model. Further details: species or system mice. Particulars: single injection of 111 MBq; p<0.001. The method, then:
An efficacy study was conducted in a prostate cancer model using Lu-labelled PSMA-R2).
Mice bearing PC3-PIP (PSMA positive) tumor were injected once with 111 MBq of ^177Lu-PSMA-R2, ^177Lu-PSMA-617, included as reference compound, or with saline (control).
Tumor volume is expressed either as an absolute value (mm^3) or relatively to the volume measured at the time of the first injection.

Where [9] appears, read: 1 µg/mL, read-out: fu (%) fraction unbound.
Setting [10] is: 5 µg/mL, read-out: fu (%) fraction unbound.
Where [11] appears, read: 1 and 5 µg/mL, read-out: Unbound fraction, range over labelled and unlabelled form.

For `O=C(O)CCC(NC(=O)NC(CCCCN(Cc1ccc(Br)cc1)C(=O)CCCCCNC(=O)CN1CCN(CC(=O)O)CCN(CC(=O)O)CCN(CC(=O)O)CC1)C(=O)O)C(=O)O` (stereo not shown) [PSMA-R2], the recovery at 2 h, 10 µg/mL in series [1] came to 85%. Moreover, the unbound share (fraction unbound) (usually free concentration divided by total concentration) at 1 µg/mL in series [2] (setting [9]) is 0.862 ± 0.111; in series [3] (1 µg/mL), 0.407 ± 0.043; in series [4] (setting [9]), 0.299 ± 0.046; in series [5] (1 µg/mL), 0.256 ± 0.018. Further, the fraction unbound at 5 µg/mL in series [2] (setting [10]) was 0.727 ± 0.015; in series [3] (5 µg/mL), 0.353 ± 0.085; in series [4] (setting [10]), 0.23 ± 0.005; in series [5] (5 µg/mL), 0.226 ± 0.011. Besides, the results for the fraction unbound in series [2] (setting [11]) and in series [4] (setting [11]) were 0.7 to 0.86 and 0.25 to 0.45, respectively.
Consider `O=C(O)CCC(NC(=O)NC(CCCCN(Cc1ccc(Br)cc1)C(=O)CCCCCNC(=O)CN1CCN(CC(=O)O)CCN(CC(=O)O)CCN(CC(=O)O)CC1)C(=O)O)C(=O)O.[68Ga]` (stereo not shown) [^68Ga-PSMA-R2], for which, in series [6] (30 minutes after intravenous injection), the Liver uptake stood at 0.74%. The same compound registered a Liver uptake in series [6] (4 hours after intravenous injection) of 0.21%. For the same compound, the “Radiotracer uptake in remaining organs (intestine, pancreas, muscle, bone)” value in series [6] (all time-points) is recorded as “Low”. Moreover, the “Radiotracer uptake in blood, adrenals, lungs, thyroid” value in series [6] (earliest time-point (30 min), decreased rapidly later) is reported as “slightly high”. Besides, the “Excretion route (uptake in kidneys and bladder)” value in series [6] (intravenous) was “excreted through the renal system”. Also, in series [7], the Salivary glands uptake is on record as 0.81% (0.5 h), the Kidney uptake was 6% (1 h), the Tumor uptake is recorded as 29% (1 h) and the Tumor-to-kidney ratio was 5 (1 h).
Take `O=C(O)CC[C@H](NC(=O)N[C@@H](CCCCN(Cc1ccc(Br)cc1)C(=O)CCCCNC(=O)CN1CCN(CC(=O)O)CCN(CC(=O)O)CCN(CC(=O)O)CC1)C(=O)O)C(=O)O.[68Ga]` [^68Ga-PSMA-cpd2, reference compound]: in series [7], the Salivary glands uptake is reported as 0.95% (0.5 h), the Kidney uptake is recorded as 13% (1 h), the Tumor uptake was 36% (1 h) and the Tumor-to-kidney ratio was 3 (1 h).
On to `O=C([O-])CN1CCN(CC(=O)[O-])CCN(CC(=O)NCC2CCC(C(=O)N[C@@H](Cc3ccc4ccccc4c3)C(=O)NCCCC[C@H](NC(=O)N[C@@H](CCC(=O)O)C(=O)O)C(=O)O)CC2)CCN(CC(=O)[O-])CC1.[177Lu+3]` (stereo partly shown) [^177Lu-PSMA-617, reference compound], for which, in series [8], the “Absolute tumor volume in comparison to control group” value is “significantly reduced” and the “Relative tumor volume in comparison to control group” value was “significantly reduced”.
`O=C([O-])CN1CCN(CC(=O)[O-])CCN(CC(=O)NCCCCCC(=O)N(CCCC[C@H](NC(=O)N[C@@H](CCC(=O)O)C(=O)O)C(=O)O)Cc2ccc(Br)cc2)CCN(CC(=O)[O-])CC1.[177Lu+3]` [^177Lu-PSMA-R2]: in series [8], the “Absolute tumor volume in comparison to control group” value was “significantly reduced” and the “Relative tumor volume in comparison to control group” value is on record as “significantly reduced”.
